Measurements taken from publication PMC12649549, “Sequence Permutation Generated Lysine and Tryptophan-Rich Antimicrobial Peptides with Enhanced Therapeutic Index” (Antibiotics, 2025).

Each substance was assayed on Pseudomonas aeruginosa Migula (ATCC 27853) (assay: not given). Details: LYM broth, 0.5 mM MgCl2.
Protocol: (§1) The antibacterial and salt-resistant activity of the peptides was tested using Escherichia coli (ATCC 25922), Pseudomonas aeruginosa Migula (ATCC 27853), Acinetobacter sp. (BCRC number 14B0091, BCRC number 14B0097, and BCRC number 14B0100), and Staphylococcus aureus sp. strains (ATCC 25923, ATCC 33591, ATCC 33592, ATCC 33593, and ATCC 6538). All bacteria were obtained from the Food Industry Research and Development Institute (Hsinchu, Taiwan) and cultured in sterilized Müller-Hinton (MH) broth at 37 °C and 200 rpm for 8 h. The inoculum concentrations were determined by measuring the optical density at 600 nm (OD 600 = 1, approximately 10^8 CFU/mL) using an Ultrospec 2100 pro UV-Visible spectrophotometer (Biochrom Ltd., Cambridge, UK) after 8 h of culture.
(§2) The antibacterial activities of the peptides in Müller-Hinton (MH) broth and modified LYM broth were determined using the standard broth microdilution method as per Clinical and Laboratory Standards Institute (CLSI) guidelines. The LYM broth was prepared with specific components and adjusted to different conditions, including varying concentrations of NaCl and MgCl2, and different pH levels. To prepare the LYM broth, 5.4 mM KCl, 5.6 mM Na2HPO4, 0.5 mM MgSO4, and 1.0 mM sodium citrate were added. Additionally, 0.4 mg of ZnCl2, 2.0 mg of FeCl3·6H2O, 0.1 mg of CuSO4·5H2O, 0.1 mg of MnSO4·H2O, 0.1 mg of Na2B4O7∙10H2O, 700 mg of amino acid mixtures without tryptophan (Takara Bio Inc., San Jose, CA, USA), and 20 mg of L-tryptophan were added per liter of medium. The pH was adjusted to 7.4, and a vitamin mixture (100X, Sigma) and glucose concentration of 2% were added. For different conditions of LYM broth, NaCl concentrations of 300, 200, 150, and 50 mM, MgCl2 concentrations of 2.5, 1.5, and 0.5 mM, and pH levels of 6.5, 5.5, and 4.5 were adjusted. Bacterial strains were incubated in MH broth overnight, regrown, and diluted to a final concentration of 5 × 10^5 CFU/mL. Peptides were added to each well at final concentrations of 50, 25, 12.5, 6.25, 3.13, 1.56, and 0.78 µg/mL, and 99 µL of diluted microbes was loaded into each well of a polypropylene 96-well plate. […] The Morpheus HeatMap software (https://software.broadinstitute.org/morpheus/) was used to display MIC values on a color scale. All experiments were independently repeated three times.

Substance	MIC [µg/mL]
Ac-KKWRKWLKWLAKK-NH2 [W5K/A9W]	1.56

Same assay, conditions: LYM broth, 1.5 mM MgCl2

Substance	MIC [µg/mL]
Ac-KKWRKWLKWLAKK-NH2 [W5K/A9W]	3.13

Same assay, conditions: LYM broth, 2.5 mM MgCl2

Substance	MIC [µg/mL]
Ac-KKWRKWLKWLAKK-NH2 [W5K/A9W]	3.13

Same assay, conditions: LYM broth, 50 mM NaCl; 16 h, 37 °C

Substance	MIC [µg/mL]
Ac-KKWRKWLKWLAKK-NH2 [W5K/A9W]	1.56

Same assay, conditions: LYM broth, 100 mM NaCl; 16 h, 37 °C

Substance	MIC [µg/mL]
Ac-KKWRKWLKWLAKK-NH2 [W5K/A9W]	1.56

Same assay, conditions: LYM broth, 200 mM (NaCl); 16 h, 37 °C

Substance	MIC [µg/mL]
Ac-KKWRKWLKWLAKK-NH2 [W5K/A9W]	3.13

Same assay, conditions: LYM broth, 300 mM (NaCl); 16 h, 37 °C

Substance	MIC [µg/mL]
Ac-KKWRKWLKWLAKK-NH2 [W5K/A9W]	6.25

Same assay, conditions: LYM broth, pH 4.5

Substance	MIC [µg/mL]
Ac-KKWRKWLKWLAKK-NH2 [W5K/A9W]	1.56

Same assay, conditions: LYM broth, pH 5.5

Substance	MIC [µg/mL]
Ac-KKWRKWLKWLAKK-NH2 [W5K/A9W]	1.56

Same assay, conditions: LYM broth, pH 6.5

Substance	MIC [µg/mL]
Ac-KKWRKWLKWLAKK-NH2 [W5K/A9W]	1.56

Same assay, conditions: MH broth; 5 × 10^5 CFU/mL, 16 h, 37 °C; repeated three times

Substance	MIC [µg/mL]
Ac-KKWRKWLKWLAKK-NH2 [W5K/A9W]	3.13

The substances below were run on S. aureus ATCC 6538 (assay: not given). Details: LYM broth, 0 mM NaCl; 16 h, 37 °C.
Protocol: as §1, §2

Substance	MIC [µg/mL]
Ac-KKWRKWLKWLAKK-NH2 [W5K/A9W]	1.56

Same assay, conditions: LYM broth, 0.5 mM MgCl2

Substance	MIC [µg/mL]
Ac-KKWRKWLKWLAKK-NH2 [W5K/A9W]	1.56

Same assay, conditions: LYM broth, 1.5 mM MgCl2

Substance	MIC [µg/mL]
Ac-KKWRKWLKWLAKK-NH2 [W5K/A9W]	1.56

Same assay, conditions: LYM broth, 2.5 mM MgCl2

Substance	MIC [µg/mL]
Ac-KKWRKWLKWLAKK-NH2 [W5K/A9W]	1.56

Same assay, conditions: LYM broth, 50 mM NaCl; 16 h, 37 °C

Substance	MIC [µg/mL]
Ac-KKWRKWLKWLAKK-NH2 [W5K/A9W]	1.56

Same assay, conditions: LYM broth, 100 mM NaCl; 16 h, 37 °C

Substance	MIC [µg/mL]
Ac-KKWRKWLKWLAKK-NH2 [W5K/A9W]	1.56

Same assay, conditions: LYM broth, 200 mM (NaCl); 16 h, 37 °C

Substance	MIC [µg/mL]
Ac-KKWRKWLKWLAKK-NH2 [W5K/A9W]	3.13

Same assay, conditions: LYM broth, 300 mM (NaCl); 16 h, 37 °C

Substance	MIC [µg/mL]
Ac-KKWRKWLKWLAKK-NH2 [W5K/A9W]	6.25

Same assay, conditions: LYM broth, pH 4.5

Substance	MIC [µg/mL]
Ac-KKWRKWLKWLAKK-NH2 [W5K/A9W]	3.13

Same assay, conditions: LYM broth, pH 5.5

Substance	MIC [µg/mL]
Ac-KKWRKWLKWLAKK-NH2 [W5K/A9W]	1.56

Same assay, conditions: LYM broth, pH 6.5

Substance	MIC [µg/mL]
Ac-KKWRKWLKWLAKK-NH2 [W5K/A9W]	1.56

Same assay, conditions: MH broth; 5 × 10^5 CFU/mL, 16 h, 37 °C; repeated three times

Substance	MIC [µg/mL]
Ac-KKWRKWLKWLAKK-NH2 [W5K/A9W]	6.25

What follows are substances tested on Gram-negative bacteria (assay: Geometric mean MIC and therapeutic index, Gram-negative bacteria). Details: Gram-negative bacteria, MH broth; MIC >50 µg/mL counted as 100 µg/mL.
Format: cell-based
Protocol: In this study, we aimed to investigate the potential of W5K series peptides for therapeutic use. To evaluate their efficacy for antibacterial therapy, we used the Therapeutic Index (TI) as a measure of their cell selectivity. The TI was calculated as the ratio of the concentration causing 10% hemolysis of human red blood cells (HC10) to the geometric mean minimum inhibitory concentration (GM) of the peptides against both Gram-negative and Gram-positive bacteria. This parameter was used to quantitatively assess the balance between antibacterial potency and cytotoxicity among the W5K derivatives.
as §2

Substance	GM G− (geometric mean of the MIC values) [µg/mL]
Ac-KKWRKWLKWLAKK-NH2 [W5K/A9W]	2.1

Same assay, conditions: HC10/GM, Gram-negative bacteria

Substance	Therapeutic Index (TI) G−
Ac-KKWRKWLKWLAKK-NH2 [W5K/A9W]	14.5
